Laboratory results published in patent US20260250322A1, “NEW PEPTIDES AS SELECTIVE IL-23 RECEPTOR INHIBITORS” (SANOFI, priority 2023, published 2026).
Numbered stars: 1 amine (or outer) side, 2 acyl side, 3 side chain; on linkers, the order of the positions; unused ones are H or OH. Bridge positions count the residues as written; N and C are the ends. Square brackets hold non-standard residues; d marks the D form. Peptide text beside a SMILES is read from it. Tyr(Me) = Yme = 4-methoxy-L-phenylalanine (O-methyl-tyrosine), COc1ccc(C[C@H](N[*:1])C(=O)[*:2])cc1; Trp(1-Me) = Cn1cc(C[C@H](N)C(=O)O)c2ccccc21; 1Nal = N[C@@H](Cc1cccc2ccccc12)C(=O)O; 2Nal = N[C@@H](Cc1ccc2ccccc2c1)C(=O)O; dOrn = NCCC[C@@H](N)C(=O)O; Orn = NCCC[C@H](N)C(=O)O; Thp = NC1(C(=O)O)CCOCC1; Aib = CC(C)(N)C(=O)O; Ahx = NCCCCCC(=O)O; Ava = NCCCCC(=O)O

T1: IL-23 receptor on the surface of HEK-Blue IL-23 cells (UniProt Q5VWK5 24-629, limits assumed)
T1 sequence (looked up): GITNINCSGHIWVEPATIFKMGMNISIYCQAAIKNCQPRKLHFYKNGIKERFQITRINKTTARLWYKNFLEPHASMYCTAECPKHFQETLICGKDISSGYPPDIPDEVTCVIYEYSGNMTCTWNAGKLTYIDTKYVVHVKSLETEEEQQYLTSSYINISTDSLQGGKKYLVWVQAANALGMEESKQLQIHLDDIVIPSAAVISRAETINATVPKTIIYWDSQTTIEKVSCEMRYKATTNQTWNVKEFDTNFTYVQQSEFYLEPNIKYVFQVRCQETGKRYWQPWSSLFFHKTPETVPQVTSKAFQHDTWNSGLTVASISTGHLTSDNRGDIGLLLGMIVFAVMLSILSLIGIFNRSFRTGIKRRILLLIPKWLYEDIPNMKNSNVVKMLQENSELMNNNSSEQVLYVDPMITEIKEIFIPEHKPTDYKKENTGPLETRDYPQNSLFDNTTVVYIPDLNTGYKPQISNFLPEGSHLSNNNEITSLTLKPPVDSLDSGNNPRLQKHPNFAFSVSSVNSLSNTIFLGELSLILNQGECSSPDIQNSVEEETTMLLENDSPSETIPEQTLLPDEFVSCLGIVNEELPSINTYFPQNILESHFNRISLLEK

T2: human IL-23R (Homo sapiens, UniProt Q5VWK5)
T2 sequence (Q5VWK5 24-355 limits assumed): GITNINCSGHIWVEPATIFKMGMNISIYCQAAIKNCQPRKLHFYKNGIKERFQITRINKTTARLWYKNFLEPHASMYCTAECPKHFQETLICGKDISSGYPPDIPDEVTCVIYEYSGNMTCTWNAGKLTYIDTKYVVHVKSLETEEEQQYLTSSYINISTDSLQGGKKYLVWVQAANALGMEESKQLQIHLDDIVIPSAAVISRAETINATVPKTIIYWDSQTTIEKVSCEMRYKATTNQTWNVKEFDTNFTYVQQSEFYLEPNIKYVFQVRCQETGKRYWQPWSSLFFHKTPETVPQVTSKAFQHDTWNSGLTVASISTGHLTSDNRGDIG

B1: peptide compound SEQ ID NO: 1 (peptide)
peptide: Ac-[dK]NTWQL[Tyr(Me)][2Nal][Aib]DNN-NH2
modifications: lactam 1-10
SMILES: COc1ccc(C[C@@H]2NC(=O)[C@H](CC(C)C)NC(=O)[C@H](CCC(N)=O)NC(=O)[C@H](Cc3c[nH]c4ccccc34)NC(=O)[C@H]([C@@H](C)O)NC(=O)[C@H](CC(N)=O)NC(=O)[C@H](NC(C)=O)CCCCNC(=O)C[C@@H](C(=O)N[C@@H](CC(N)=O)C(=O)N[C@@H](CC(N)=O)C(N)=O)NC(=O)C(C)(C)NC(=O)[C@H](Cc3ccc4ccccc4c3)NC2=O)cc1

Target: T1, IL-23 receptor on the surface of …
Assay: cell-based or functional assay
Details: not given

Inhibition of IL-23 induced pSTAT3 (IC50 nM)	Molecule
334 nM	B1

Target: T2, human IL-23R
Assay: Human ELISA IL-23/IL-23R binding inhibition
Details: human IL-23 coated, recombinant human IL-23R-Fc chimera
Procedure: Antagonism of peptide compounds for human interleukin-23 receptor inhibitors, was determined by an ELISA assay.
A 384-well plate was coated with 50 μl/well of human IL-23 at a final concentration of 1 μg/ml and incubated overnight at 4° C. The wells were washed 3 times with 80 μl wash buffer and blocked with 80 μl blocking buffer for 60 minutes at room temperature and washed again. 20 μl of serially diluted test peptides was added to each well and subsequently 20 μl of recombinant human IL-23R-Fc chimera at final concentration of 0.1 μg/ml. The plate was incubated for 60 minutes at room temperature. After the wells were washed, bound IL-23R-Fc was detected with goat anti-hu-lgG1-HRP antibody. Signals were visualized with QuantaBlu Fluorogenic Peroxidase Substrate.

IC50	Molecule
48.4 nM	COc1ccc(C[C@@H]2NC(=O)[C@H](CCCNC(=N)N)NC(=O)[C@H](CCC(N)=O)NC(=O)[C@H](Cc3c[nH]c4ccccc34)NC(=O)[C@H]([C@@H](C)O)NC(=O)[C@H](CC(N)=O)NC(=O)[C@H](NC(C)=O)CCCNC(=O)CC[C@@H](C(=O)N[C@@H](CC(N)=O)C(=O)N[C@@H](CC(N)=O)C(N)=O)NC(=O)C(C)(C)NC(=O)[C@H](Cc3cccc4ccccc34)NC2=O)cc1 [compound 22] (Ac-[dOrn]NTWQRY(Me)[1Nal][Aib]ENN-NH2; lactam 1-10)
3.36 nM	CC(=O)N[C@H]1CC(=O)NCCC[C@@H](C(=O)N[C@@H](CC(N)=O)C(=O)N[C@@H](CC(N)=O)C(N)=O)NC(=O)C(C)(C)NC(=O)[C@H](Cc2ccc3ccccc3c2)NC(=O)[C@H](Cc2ccc(O)cc2)NC(=O)[C@H](CCCNC(=N)N)NC(=O)[C@H](CCC(N)=O)NC(=O)[C@H](Cc2cn(C)c3ccccc23)NC(=O)[C@H]([C@@H](C)O)NC(=O)[C@H](CC(N)=O)NC1=O [compound 33] (Ac-DNT[Trp(1-Me)]QRY[2Nal][Aib][Orn]NN-NH2; lactam 1-10)
2.16 nM	COc1ccc(C[C@@H]2NC(=O)[C@H](CCCNC(=N)N)NC(=O)[C@H](CCC(N)=O)NC(=O)[C@H](Cc3cn(C)c4ccccc34)NC(=O)[C@H]([C@@H](C)O)NC(=O)[C@H](CC(N)=O)NC(=O)[C@@H](NC(C)=O)CC(=O)NCCC[C@@H](C(=O)N[C@@H](CC(N)=O)C(=O)N[C@@H](CC(N)=O)C(N)=O)NC(=O)C(C)(C)NC(=O)[C@H](Cc3ccc4ccccc4c3)NC2=O)cc1 [compound 34] (Ac-DNT[Trp(1-Me)]QRY(Me)[2Nal][Aib][Orn]NN-NH2; lactam 1-10)
4.55 nM	COc1ccc(C[C@@H]2NC(=O)[C@H](CCCNC(=N)N)NC(=O)[C@H](CCC(N)=O)NC(=O)[C@H](Cc3cn(C)c4ccccc34)NC(=O)[C@H]([C@@H](C)O)NC(=O)[C@H](CC(N)=O)NC(=O)[C@@H](NC(C)=O)CCC(=O)NCCC[C@@H](C(=O)N[C@@H](CC(N)=O)C(=O)N[C@@H](CC(N)=O)C(N)=O)NC(=O)C(C)(C)NC(=O)[C@H](Cc3ccc4ccccc4c3)NC2=O)cc1 [compound 35] (Ac-ENT[Trp(1-Me)]QRY(Me)[2Nal][Aib][Orn]NN-NH2; lactam 1-10)
19.5 nM	COc1ccc(C[C@@H]2NC(=O)[C@H](CCCNC(=N)N)NC(=O)[C@H](CCC(N)=O)NC(=O)[C@H](Cc3cn(C)c4ccccc34)NC(=O)[C@H]([C@@H](C)O)NC(=O)[C@H](CC(N)=O)NC(=O)[C@@H](NC(C)=O)CC(=O)NCCC[C@@H](C(=O)N[C@@H](CC(N)=O)C(=O)N[C@@H](CC(N)=O)C(N)=O)NC(=O)C(C)(C)NC(=O)[C@H](Cc3c[nH]c4ccccc34)NC2=O)cc1 [compound 36] (Ac-DNT[Trp(1-Me)]QRY(Me)W[Aib][Orn]NN-NH2; lactam 1-10)
3.57 nM	COc1ccc(C[C@@H]2NC(=O)[C@H](CCCNC(=N)N)NC(=O)[C@H](CCC(N)=O)NC(=O)[C@H](Cc3cn(C)c4ccccc34)NC(=O)[C@H]([C@@H](C)O)NC(=O)[C@H](CC(N)=O)NC(=O)[C@@H](NC(C)=O)CC(=O)NCCC[C@@H](C(=O)N[C@@H](CC(N)=O)C(=O)N[C@@H](CC(N)=O)C(N)=O)NC(=O)[C@H](CC(C)C)NC(=O)[C@H](Cc3ccc4ccccc4c3)NC2=O)cc1 [compound 37] (Ac-DNT[Trp(1-Me)]QRY(Me)[2Nal]L[Orn]NN-NH2; lactam 1-10)
18.1 nM	COc1ccc(C[C@@H]2NC(=O)[C@H](CCCNC(=N)N)NC(=O)[C@H](CCC(N)=O)NC(=O)[C@H](Cc3c[nH]c4ccccc34)NC(=O)[C@H](Cc3c[nH]cn3)NC(=O)[C@H](CC(N)=O)NC(=O)[C@@H](NC(C)=O)CCCCNC(=O)C[C@@H](C(=O)N[C@@H](CC(N)=O)C(=O)N[C@@H](CC(N)=O)C(N)=O)NC(=O)C3(CCOCC3)NC(=O)[C@H](Cc3ccc4ccccc4c3)NC2=O)cc1 [compound 42] (Ac-KNHWQRY(Me)[2Nal][Thp]DNN-NH2; lactam 1-10)
1.44 nM	COc1ccc(C[C@@H]2NC(=O)[C@H](C)NC(=O)[C@H](CCC(N)=O)NC(=O)[C@H](Cc3c[nH]c4ccccc34)NC(=O)[C@H]([C@@H](C)O)NC(=O)[C@H](CC(N)=O)NC(=O)CCCCCNC(=O)C[C@@H](C(=O)N[C@@H](CC(N)=O)C(=O)N[C@@H](CC(N)=O)C(N)=O)NC(=O)C(C)(C)NC(=O)[C@H](Cc3ccc4ccccc4c3)NC2=O)cc1 [compound 43] ([Ahx]NTWQAY(Me)[2Nal][Aib]DNN-NH2; lactam N-10)
4.66 nM	COc1ccc(C[C@@H]2NC(=O)[C@H](C)NC(=O)[C@H](CCC(N)=O)NC(=O)[C@H](Cc3c[nH]c4ccccc34)NC(=O)[C@H]([C@@H](C)O)NC(=O)[C@H](CC(N)=O)NC(=O)CCCCNC(=O)C[C@@H](C(=O)N[C@@H](CC(N)=O)C(=O)N[C@@H](CC(N)=O)C(N)=O)NC(=O)C(C)(C)NC(=O)[C@H](Cc3ccc4ccccc4c3)NC2=O)cc1 [compound 44] ([Ava]NTWQAY(Me)[2Nal][Aib]DNN-NH2; lactam N-10)
0.96 nM	COc1ccc(C[C@@H]2NC(=O)[C@H](C)NC(=O)[C@H](CCC(N)=O)NC(=O)[C@H](Cc3c[nH]c4ccccc34)NC(=O)[C@H]([C@@H](C)O)NC(=O)[C@H](CCCNC(=N)N)NC(=O)[C@H](NC(C)=O)CCCCNC(=O)C[C@@H](C(=O)N[C@@H](CC(N)=O)C(=O)N[C@@H](CC(N)=O)C(N)=O)NC(=O)C(C)(C)NC(=O)[C@H](Cc3ccc4ccccc4c3)NC2=O)cc1 [compound 45] (Ac-[dK]RTWQAY(Me)[2Nal][Aib]DNN-NH2; lactam 1-10)
1.38 nM	COc1ccc(C[C@@H]2NC(=O)[C@H](C)NC(=O)[C@H](CCC(N)=O)NC(=O)[C@H](Cc3c[nH]c4ccccc34)NC(=O)[C@H](CCCNC(=N)N)NC(=O)[C@H](CC(N)=O)NC(=O)[C@H](NC(C)=O)CCCCNC(=O)C[C@@H](C(=O)N[C@@H](CC(N)=O)C(=O)N[C@@H](CC(N)=O)C(N)=O)NC(=O)C(C)(C)NC(=O)[C@H](Cc3ccc4ccccc4c3)NC2=O)cc1 [compound 46] (Ac-[dK]NRWQAY(Me)[2Nal][Aib]DNN-NH2; lactam 1-10)
2.06 nM	COc1ccc(C[C@@H]2NC(=O)[C@H](C)NC(=O)[C@H](CCC(N)=O)NC(=O)[C@H](Cc3c[nH]c4ccccc34)NC(=O)[C@H]([C@@H](C)O)NC(=O)[C@H](CC(N)=O)NC(=O)[C@H](NC(C)=O)CCCCNC(=O)C[C@@H](C(=O)N[C@@H](CC(N)=O)C(=O)N[C@@H](C)C(N)=O)NC(=O)C(C)(C)NC(=O)[C@H](Cc3ccc4ccccc4c3)NC2=O)cc1 [compound 48] (Ac-[dK]NTWQAY(Me)[2Nal][Aib]DNA-NH2; lactam 1-10)
3.13 nM	COc1ccc(C[C@@H]2NC(=O)[C@H](C)NC(=O)[C@H](CCC(N)=O)NC(=O)[C@H](Cc3c[nH]c4ccccc34)NC(=O)[C@H]([C@@H](C)O)NC(=O)[C@H](CC(N)=O)NC(=O)[C@H](NC(C)=O)CCCCNC(=O)C[C@@H](C(=O)N[C@@H](C)C(=O)N[C@@H](CC(N)=O)C(N)=O)NC(=O)C(C)(C)NC(=O)[C@H](Cc3ccc4ccccc4c3)NC2=O)cc1 [compound 49] (Ac-[dK]NTWQAY(Me)[2Nal][Aib]DAN-NH2; lactam 1-10)
8.29 nM	COc1ccc(C[C@@H]2NC(=O)[C@H](C)NC(=O)[C@H](CCC(N)=O)NC(=O)[C@H](Cc3c[nH]c4ccccc34)NC(=O)[C@H]([C@@H](C)O)NC(=O)[C@H](CC(N)=O)NC(=O)[C@H](NC(C)=O)CCCCNC(=O)C[C@@H](C(=O)N[C@@H](C)C(=O)N[C@@H](C)C(N)=O)NC(=O)C(C)(C)NC(=O)[C@H](Cc3ccc4ccccc4c3)NC2=O)cc1 [compound 50] (Ac-[dK]NTWQAY(Me)[2Nal][Aib]DAA-NH2; lactam 1-10)
